Laboratory results reported in patent publication US20150005253A1, “NOVEL COMBINATIONS FOR TREATING ACUTE MYELOID LEUKAEMIA OR CHRONIC MYELOID LEUKAEMIA” (SANOFI, priority 2012, published 2015).
Read-outs that look alike come from different tables or passages of the source.

Experiments:
[1] = system: granulomonocytic progenitors (CFU-GM); test: Normal myeloid progenitor cell clonogenic assay (CFU-GM); format: cell-based; conditions: Homo sapiens, 336 h, median over normal myeloid progenitor samples, 14 days
Method: (§1) For in vitro studies, compound (A) was dissolved at 10 mM in DMSO and diluted in complete RPMI-1640 medium or in phenol red-free complete RPMI-1640 medium in sterile 96-well polystyrene cell culture plates. For in vivo studies, compound (A) was prepared for intravenous (IV) or intraperitoneal (IP) administration by mixing 22% PEG400 with 5% solutol and 73% […]. For oral administration, compound (A), was prepared in a generally regarded as safe (GRAS) formulation composed of 21% labrasol with 5% solutol and 74% HCL 0.001N. Solutions were kept on ice and administered as a bolus within 1 hour after formulation preparation. The volume of injection was 0.2 mL per mouse.
(§2) Fresh CD34^+ human bone marrow cells were washed twice in Iscove modified Dulbecco medium (IMDM) containing 10% FCS and resuspended in H4230 medium supplemented with 10% 5637-conditioned medium for CFU-GM growth, in H4435 medium for CFU-M growth, and in H4535 medium for BFU-E growth. H4230, H4435, and H4535 medium were purchased from Stem Cell Technologies. The cells were then plated in 35-mm Petri dishes and incubated in a humidified CO2 incubator (5% CO2, 37° C.) for 14 days. Colonies (>50 cells) were then scored under an inverted microscope.

[2] = system: erythroblastic BFU-E progenitors; test: Normal myeloid progenitor cell clonogenic assay (BFU-E); format: cell-based; conditions: Homo sapiens, 336 h, median over normal myeloid progenitor samples, 14 days
Method: as §1, §2

[3] = system: leukemia progenitors (CFU-L) of AML patient samples; test: Myeloid leukemic cell clonogenic assay on AML patient samples (ex vivo); format: cell-based, human; conditions: for IC50: Homo sapiens
Method: Hematological malignant cell lines were obtained from Deutsche Sammlung von Mikroorganismen and Zellkulturen GmbH (Braunschweig) and cultured in complete RPMI-1640 medium containing 10% fetal bovine serum and antibiotics. Primary AML cells were obtained from patients seen at Toulouse Hospital (Toulouse, France) at the time of diagnosis and after written informed consent. All samples were evaluated for karyotypic abnormalities, immunologic phenotype, FLT3-acquired activating mutations (internal tandem duplications and kinase domain mutations), t (Mizuki M. et al., Blood 2000 96: 3907-3914; Fiebig H. H. et al., Eur. J. Cancer 2004, 40: 802-820) and inv (Bonnet D. et al., Nat Med 1997 3: 730-737) mutations, and c-kit receptor-acquired mutations. Samples were stored in the Hemopathies Inserm Midi-Pyrénées (HIMIP) collection. Mononuclear cells were separated through a Ficoll-Hypaque density gradient.
as §1
The assay is as described by Récher and colleagues (Récher C. et al., Blood 2005; 105:2527-2534) with slight modifications. Briefly, cells were washed twice in PBS and suspended at 1×10^5 cell/mL in H4230 medium (Stem Cell Technologies) supplemented with 10% 5637-conditioned medium and appropriate dilutions of COMPOUND (A). Cells were then plated on 35 mm petri dishes and incubated at 37° C. in 5% CO2, fully humidified atmosphere. After 7 days, colonies (more than 20 cells) and clusters (more than 5 cells) were scored using an inverted microscope.

KG1a cells = test: Tumor implantation study in SCID mice bearing KG1a cells; format: in vivo; conditions: for ΔT/ΔC: evaluated on day 32; for cures: day 120
Method: as §1
(§3) Eight-week-old female SCID mice were purchased from Charles River. The Committee of Animal Studies at Sanofi approved the protocol for animal experimentation. This protocol and all laboratory procedures comply with the French Legislation, which implements the European Directives. Animals were received at least one week before the experiment to allow acclimatization. The animals were kept under a natural daylight cycle and given food and water ad libitum.
All tumor cell lines were obtained from DSMZ GmbH. Initially, cell lines were cultured in RPMI 1640 containing 10% FCS and antibiotics, and implanted subcutaneously in SCID mice (10^7 cells/mouse). When the tumor reached approximately 1000 mg, it was removed from the donor mouse, cut into fragments (2-3 mm diameter), placed in a phosphate buffer saline, and implanted bilaterally with a 12-gauge trocar. Tumor fragments were propagated until stable growth behavior occurred (a stable doubling time), before using in experiments. Distribution was performed using body weight and tumor weight criteria with the “Newlab oncology” software (Newlab).
(§4) When ΔT/ΔC values are negative, the percentage of regression is evaluated. Partial regression (PR) is defined as a decrease ≧50% of tumor volume at treatment initiation. Complete regression (CR) is defined as a decrease in tumor volume below the limit of palpation (T=10 mm^3). At study end, the number of tumor-free survivors (TFS), which correspond to mice without any detectable tumor, was determined. Both drug-related deaths and maximum percent relative mean net body weight loss were also determined. Median times to reach tumor target size were compared using Log-Rank or Kruskal-Wallis multiple comparisons tests. A body weight loss nadir (mean of group)>20% or 10% drug-related deaths were considered to indicate an excessive toxic dosage.

in vivo = format: in vivo; conditions: female, SCID, mouse, in vivo; daily IV
Method: (§5) Solutions were kept on ice and administered as a bolus within 1 hour after formulation preparation. The volume of injection was 0.2 mL per mouse.
as §3
(§6) When the tumor reached approximately 1000 mg, it was removed from the donor mouse, cut into fragments (2-3 mm diameter), placed in a phosphate buffer saline, and implanted bilaterally with a 12-gauge trocar. Tumor fragments were propagated until stable growth behavior occurred (a stable doubling time), before using in experiments. Distribution was performed using body weight and tumor weight criteria with the “Newlab oncology” software (Newlab).
as §4
(§7) where T is the median time (in days) required for the treatment group tumors to reach a predetermined size (eg, 1000 mg), and C is the median time tumors to reach the same size (in days) for the vehicle group of each schedule. Tumor-free survivors are excluded from these calculations (cures are tabulated separately). T-C is the tumor growth delay and Td is the tumor doubling time in days. […] LCK-g values can be translated into an activity rating, according to the Southern Research Institute (SRI) criteria: […]

KG1 cells = test: in vivo; format: in vivo; conditions: for CR / cures / log cell kill-gross (LCK-g): Compound (A) 20 mg/kg IV days 16-20, alone or combined; for tumor response, oral consolidation: after IV induction
Method: as §5, §3, §6, §4, §7

CML-T1 = test: Human chronic leukaemia CML-T1 implanted in SCID mice; format: in vivo; conditions: Cytarabine 200 mg/kg IP days 8, 12, 16; COMPOUND (A) 10 mg/kg IP days 8, 9, 11-17, 19; alone or combined
Method: Food and water were given ad libitum.
as §7

[4] = Cytarabine 31.5 mg/kg IP days 16-22
[5] = very advanced KG1 tumors (1000 mg), 25 mg/kg IV daily day 22-30

Structure (SMILES): CC(C)(C)NC(=O)Nc1nc2nc(Nc3ccc4nsnc4c3)ncc2cc1-c1c(Cl)cccc1Cl [Compound (A), N-[2-(2,1,3-benzothiadiazol-5-ylamino)-6-(2,6-dichlorophenyl)pyrido[2,3-d]pyrimidin-7-yl]-N′-(1,1-dimethylethyl)-urea]
- IC50 [1]: 788 nM
- IC50 [2]: 219 nM
- IC50 ([3]; range over AML patient samples, read-out: IC50 values ranging (all tested samples)): ≥ 3.8 nM
- IC50 ([3]; resistant, N=4 samples, read-out: IC50 maximum, resistant samples): > 1000 nM
- IC50 ([3]; resistant, N=4 samples, read-out: IC50 minimum, resistant samples): 888 nM
- IC50 ([3]; sensitive, N=26, read-out: IC50 maximum, sensitive samples): 532 nM
- IC50 ([3]; sensitive, N=26, read-out: IC50 median, sensitive samples): 172 nM
- IC50 ([3]; sensitive, N=26, read-out: IC50 minimum, sensitive samples): 3.8 nM
- sensitive samples as share of the tested samples ([3]; classified against activity on normal hematopoietic progenitors): 86.7%
- AML cell samples displaying resistance in the high-risk cytogenetic group ([3]; high-risk group: patients 4, 11, 14, 19, 21, 23, 25, 27, 28, 29): 3
- sensitivity of patient sample 11 ([3]; patient sample 11): highly sensitive
- activity rating (KG1a cells; 10 mg/kg): highly active (ΔT/ΔC<0: highly active)
- animals with complete regression (KG1a cells; 10 mg/kg): 10/10
- ΔT/ΔC (KG1a cells; 10 mg/kg daily IV day 5-13 then IP to day 31): −4.99%
- cures (KG1a cells; 10 mg/kg): 80%
- activity rating (KG1a cells; 17 mg/kg): highly active (ΔT/ΔC<0: highly active)
- animals with complete regression (KG1a cells; 17 mg/kg): 10/10
- ΔT/ΔC (KG1a cells; 17 mg/kg daily IV day 5-13 then IP to day 31): −4.70%
- body weight loss at nadir (KG1a cells; 17 mg/kg daily IV day 5-13 then IP, day 22, reversible): 16.2%
- cures (KG1a cells; 17 mg/kg): 60%
- MTD (in vivo): 25 mg/kg
- activity rating (KG1 cells; 10 mg/kg IV): active
- animals with CR (KG1 cells; 10 mg/kg/day IV): one of six
- ΔT/ΔC (KG1 cells; 10 mg/kg/day IV, day 19 to day 38): 17.45%
- activity rating (KG1 cells; 25 mg/kg IV): highly active (ΔT/ΔC<0: highly active)
- animals with complete regressions (CR) (KG1 cells; 25 mg/kg/day IV (MTD)): 6 out of 6
- animals with cures (KG1 cells; 25 mg/kg/day IV (MTD)): 6 out of 6
- DT/DC (KG1 cells; 25 mg/kg/day IV, day 19 to day 38): < −14.27%
- body weight loss (KG1 cells; 25 mg/kg/day IV, day 29, reversible): 18.2%
- CR (KG1 cells; [4]): 83%
- cures (KG1 cells; [4]): no
- log cell kill-gross (LCK-g) (KG1 cells; [4]): 2.4
- tumor response, oral consolidation (KG1 cells; oral 1x50 mg/kg daily day 31-95): tumors re-grew slowly
- tumor response, oral consolidation (KG1 cells; oral 2x40 mg/kg daily day 31-95): complete disappearance of tumors
- animals cured (KG1 cells; oral 2x40 mg/kg/day): None
- maximum body weight loss (KG1 cells; oral 2x40 mg/kg/day, day 28, rapidly reversible): 14.4%
- efficacy (in words) (KG1 cells; oral once a day 19.8 mg/kg): no efficacy
- ΔT/ΔC (KG1 cells; oral once a day 19.8 mg/kg): 41.99%
- DT/DC (KG1 cells; oral once a day 31.5 mg/kg): 19.72%
- DT/DC (KG1 cells; oral once a day 50 mg/kg): 7.61%
- ΔT/ΔC (KG1 cells; oral, two daily dosages of 40 mg/kg/day, day 15 to day 40): −3.80%
- activity rating, IV induction phase (KG1 cells; [5]): highly active (ΔT/ΔC<0: highly active)
- tumor response, IV induction phase (KG1 cells; [5]): strong tumor regressions
- LCK-g (CML-T1): 0.1

Structure (SMILES): Nc1ccn([C@@H]2O[C@H](CO)[C@@H](O)[C@@H]2O)c(=O)n1 [Cytarabine, cytarabine, reference compound]
- CR (KG1 cells; [4]): no
- cures (KG1 cells; [4]): no
- log cell kill-gross (LCK-g) (KG1 cells; [4]): 1.6
- PR (KG1 cells; [4]): no
- LCK-g (CML-T1): 0.9
